Several values for one entry are separate records, joined by “and”; a condition that tells them apart may be missing. Identical values can stand only once. Like-named read-outs stand apart in the source and are kept apart here.
Tests used:
[1] = Metabolite profiling of plasma extracts by radio-HPLC (Group 3); format: in vivo, rat; conditions: for concentration at 2 h / concentration at 8 h: rat, plasma, oral, 30 mg/kg, read-out: Concentration in plasma extract
Description: Metabolite profiling was performed by HPLC analysis according to the company’s SOP of plasma (Group 3), urine (Group 2) and feces (Group 2) samples. Briefly, for metabolite profiling and identification, radioactivity (cpm) was measured in HPLC eluent fractions that had previously been collected at 12 s intervals for the duration of the run (65 min) into 96-well Deep Well LumaPlates and dried in a centrifugal evaporator. A Microbeta2 scintillation counter was used to count each plate, with wells simultaneously counted for 2 min, after an initial 5 min delay. A subsample of plasma was analyzed (ca 2 ml) taken from individual animals to provide representative samples, for each sex, at 2, 8 and 168 h post dose (n = 6). Equal proportions of the total urine weight voided from Group 2 animals was pooled to provide representative samples for each sex at 0–6 h, 6–24 h and 24–48 h post dose (n = 6). Equal proportions of the total feces homogenate generated from the samples voided by the three rats (Group 2) were pooled to provide representative samples for each sex at 0–24 and 24–48 h post dose ([…]). Sample preparation was carried out due to the company’s SOPs (see Supplementary Methods). The extractability was ≥95.0% (95.0–100%) TRR (Total Radioactive Residue) for plasma and ≥88.3% (88.3%–91.3%) TRR for feces. As reference, a standard solution of zapnometinib (0.1 mg/ml in acetonitrile) was used. To assess HPLC method suitability, a column recovery was assessed on each representative sample (one per matrix). The recovery of radioactivity from the HPLC column was determined by collecting the column eluent, following an injection of a representative sample (one per matrix), and determining the radioactive content by submitting aliquots for LSC analysis. The results of these analyses were between 93.8%–105.1% column recoveries.
Next, radioactive metabolic components of zapnometinib in urine, plasma and feces extracts were isolated and profiled. The components were quantified by fraction collection/scintillation analysis, as appropriate to the radioactivity concentrations. Mass spectroscopy was used to propose identities of the major circulatory and excreted metabolites, and to correlate the metabolites detected in the different matrices. Components identified by LC-MS/MS were related to the quantified HPLC analysis by comparison of related radiochromatograms and comparison of elution order. Representative HPLC radiochromatograms of pooled feces extracts collected during 0–24 and 24–48 h post dose from male and female rats (which reveal the main metabolites) were qualitatively similar with some minor sex differences (Figure 3).

[2] = Excretion balance of radioactivity after single oral 30 mg/kg [14C]-zapnometinib, Sprague-Dawley rats (Group 2); format: in vivo, rat; conditions: for Total recovery: 0-168 h; for Carcass: 168 h
Description: Oral doses of [^14C]-zapnometinib were administered as a suspension in 5% DMSO (v/v), 30% PEG 400 (v/v) and 7.5% (w/v) Captisol in water at a dose level of 30 mg/kg to male and female rats by gastric intubation at a dose volume of 4 ml/kg body weight. The selected dose level (30 mg/kg) was below the no observed adverse effect level (100 mg/kg), the formulation was selected based on data obtained in other nonclinical studies. The radioactive dose administered to each animal was quantified from the weight (excretion studies only) or volume of dosing formulation given, and its mean measured radioactivity concentration. The weight of test compound administered to each rat was determined from the radioactive dose administered and the specific activity of the test material.
Total excreta from three male and three female rats were collected after single oral doses of [^14C]-zapnometinib. Urine was collected into containers cooled in solid CO2 and feces were collected separately at ambient temperature. Expired air was trapped in 1M potassium hydroxide solution. After completion of the final excreta collection, rats were killed by cervical dislocation following sedation, and the carcasses retained for analysis.
Radioactivity was measured by liquid scintillation analysis using Wallac® 1409 automatic liquid scintillation counters. Samples were prepared according to the company’s SOP (see Supplementary Methods). Briefly, replicate weighed samples were mixed with Ultima Gold™ scintillation cocktail (PerkinElmer, United States) for the measurement of radioactivity. Radioactivity in amounts less than twice that of the background concentration in the sample under investigation was below the limit of accurate quantification (BLQ). […]
For Liquid scintillation analyses, carcasses from rats (Group 2) were solubilized by digestion at ca 55 °C overnight in a solution prepared from sodium hydroxide (80 g) and Triton X-405 (100 mL) in purified water (600 mL) and methanol (300 mL). After measurement of total sample weight (as appropriate), replicate portions of diluted dose solutions (ca 0.1 mL), plasma (ca 0.05 – 0.25 mL), urine (ca 0.05 – 0.25 mL), expired air trap solution (ca 1 mL) and cage wash (ca 1 mL) were mixed directly with Ultima Gold scintillation cocktail (5 mL; 15 mL for air traps) for measurement of radioactivity concentrations. Similarly, replicate weighed portions of digested carcass solutions (ca 1 mL plus 1 mL purified water) were mixed with Ultima Gold (10 mL) scintillation cocktail for measurement of radioactivity concentrations. Feces were weighed, then homogenized to a smooth paste after the addition of an appropriate volume (approximately 1.5 volumes) of purified water and the weight of each homogenate was recorded. Replicate weighed portions of feces (ca 0.2 g) and blood cells (ca. 0.25 g) were placed on Combustocones, which were then capped with cellulose pads and burned in oxygen using […]

[3] = parameters: method as in Lorusso et al., 2005; conditions: acid metabolite after CI-1040 dosing in patients; ref Lorusso et al., 2005; cited from earlier work
[4] = individual males 7M, 8M, 9M, rows in order of periods 0-24, 0-48, 0-72, 0-96, 0-120, 0-144, 0-168 h

## O=C(O)c1ccc(F)c(F)c1Nc1ccc(I)cc1Cl [zapnometinib, 2-(2-Chloro-4-iodophenylamino)-3,4-difluorobenzoic acid]
[1]; 2 hours, female rats
  Proportion in plasma extract: 97.9 % sample
  concentration at 2 h: 78400 ng/g
[1]; 2 hours, male rats
  Proportion in plasma extract: 92.0 % sample
  concentration at 2 h: 64400 ng/g
[1]; 8 hours, female rats
  Proportion in plasma extract: 88.7 % sample
  concentration at 8 h: 80700 ng/g
[1]; 8 hours, male rats
  Proportion in plasma extract: 92.5 % sample
  concentration at 8 h: 72100 ng/g
[1]; all measured time points
  Extractability of plasma radioactivity: > 90 % TRR
[1]; by 168 h post dose
  Plasma concentration of unchanged zapnometinib: below the limit of quantification
[2]; 0-6 h, male, mean
  Cumulative excretion, urine: 0.23 % administered dose
[2]; 0-24 h, male, mean
  Cumulative excretion, faeces: 79.34 % administered dose
  Cumulative excretion, urine: 2.20 % administered dose
  Cumulative, cage wash: 0.14 % administered dose
  Cumulative, expired air: 0.02 % administered dose
[2]; 0-48 h, male, mean
  Cumulative excretion, faeces: 89.32 % administered dose
  Cumulative excretion, urine: 2.68 % administered dose
  Cumulative, cage wash: 0.18 % administered dose
  Cumulative, expired air: 0.02 % administered dose
[2]; 0-72 h, male, mean
  Cumulative excretion, faeces: 90.12 % administered dose
  Cumulative excretion, urine: 2.77 % administered dose
  Cumulative, cage wash: 0.19 % administered dose
  Cumulative, expired air: 0.02 % administered dose
[2]; 0-96 h, male, mean
  Cumulative excretion, faeces: 90.28 % administered dose
  Cumulative excretion, urine: 2.80 % administered dose
  Cumulative, cage wash: 0.21 % administered dose
[2]; 0-120 h, male, mean
  Cumulative excretion, faeces: 90.34 % administered dose
  Cumulative excretion, urine: 2.82 % administered dose
  Cumulative, cage wash: 0.21 % administered dose
[2]; 0-144 h, male, mean
  Cumulative excretion, faeces: 90.37 % administered dose
  Cumulative excretion, urine: 2.83 % administered dose
  Cumulative, cage wash: 0.21 % administered dose
[2]; female, mean
  Total recovery: 98.26 % Administered dose
  Carcass: 0.19 % Administered dose
[2]; male, mean
  Total recovery: 93.72 % Administered dose
  Carcass: 0.20 % Administered dose
[2]; 168 h post dose, both sexes
  Radioactivity in carcasses: ~0.2%
[2]; individual males 7M, 8M, 9M, periods 0-24, 0-48, 0-72 h
  Cumulative, expired air: 0.02 % administered dose
[2]; individual males 7M, 8M, 9M, rows in order of periods 0-6, 0-24, 0-48, 0-72, 0-96, 0-120, 0-144, 0-168 h
  Cumulative excretion, urine: 0.23 % administered dose and 0.16 % administered dose and 0.30 % administered dose and 2.69 % administered dose and 1.99 % administered dose and 1.92 % administered dose and 3.13 % administered dose and 2.48 % administered dose and 2.43 % administered dose and 3.20 % administered dose and 2.55 % administered dose and 2.56 % administered dose and 3.22 % administered dose and 2.58 % administered dose and 2.61 % administered dose and 3.23 % administered dose and 2.59 % administered dose and 2.63 % administered dose and 3.24 % administered dose (2×) and 2.60 % administered dose (2×) and 2.64 % administered dose and 2.65 % administered dose
[2]; [4]
  Cumulative excretion, faeces: 81.33 % administered dose and 77.94 % administered dose and 78.75 % administered dose and 90.61 % administered dose and 88.87 % administered dose and 88.48 % administered dose and 91.30 % administered dose and 89.52 % administered dose and 89.53 % administered dose and 91.37 % administered dose and 89.65 % administered dose and 89.82 % administered dose and 91.41 % administered dose and 89.69 % administered dose and 89.92 % administered dose and 91.44 % administered dose and 89.72 % administered dose and 89.96 % administered dose and 91.46 % administered dose and 89.89 % administered dose and 89.99 % administered dose
  Cumulative, cage wash: 0.14 % administered dose (2×) and 0.16 % administered dose (4×) and 0.11 % administered dose and 0.22 % administered dose and 0.19 % administered dose and 0.23 % administered dose (5×) and 0.20 % administered dose and 0.15 % administered dose and 0.24 % administered dose (3×) and 0.26 % administered dose and 0.17 % administered dose
[3]
  Plasma concentrations relative to those of CI-1040: approximately 30 fold
